# Literature values, collected in PMC11390321 (Cancer chemotherapy and pharmacology, 2024).
# Conditions: tumor-bearing mice, orally administered; cited from earlier work
smiles,measurement,value
C[C@@H]1COCCN1c1cc(C2([S@](C)(=N)=O)CC2)nc(-c2cc[nH]c3nccc2-3)n1 [ceralasertib],bone marrow exposure relative to plasma,4.60 fold
